Measurements taken from patent US20190119298A1, “FUSED 3-PHENYLTETRAMIC ACID DERIVATIVES HAVING HERBICIDAL ACTION” (Bayer CropScience Aktiengesellschaft, priority 2016, published 2019).

Assays:
Type in all cases: in vivo
[1] = test system: Setaria viridis; experiment: Post-emergence herbicidal effect; details: one-leaf stage, 320 g/ha, assessed visually after about 3 weeks, 100% = plants have died
Description: (§1) SETVI: Setaria viridis Seeds of monocotyledonous and dicotyledonous weed and crop plants are laid out in sandy loam soil in wood-fibre pots, covered with soil and cultivated in a greenhouse under good growth conditions. 2 to 3 weeks after sowing, the test plants are treated at the one-leaf stage. The compounds of the invention, formulated in the form of wettable powders (WP) or as emulsion concentrates (EC), are then sprayed onto the green parts of the plants as aqueous suspension or emulsion at a water application rate equating to 600 to 800 L/ha with addition of 0.2% wetting agent. After the test plants have been left to stand in the greenhouse under optimal growth conditions for about 3 weeks, the action of the preparations is assessed visually in comparison to untreated controls (herbicidal action in percent (%): 100% activity=the plants have died, 0% activity=like control plants).

[2] = test system: Echinochloa crus-galli; experiment: Post-emergence herbicidal effect; details: one-leaf stage, 320 g/ha, assessed visually after about 3 weeks, 100% = plants have died
Description: as §1, with “ECHCG: Echinochloa crus-galli” for “SETVI: Setaria viridis”

[3] = test system: Alopecurus myosuroides; experiment: Pre-emergence herbicidal effect; details: 320 g/ha, scored visually after 3 weeks vs untreated controls, 100% = plants have died
Source text: (§2) Seeds of monocotyledonous and dicotyledonous weed plants and crop plants are laid out in sandy loam soil in wood-fibre pots and covered with soil. The compounds of the invention, formulated in the form of wettable powders (WP) or as emulsion concentrates (EC), are then applied to the surface of the covering soil as aqueous suspension or emulsion at a water application rate equating to 600 to 800 L/ha with addition of 0.2% wetting agent. After the treatment, the pots are placed in a greenhouse and kept under good growth conditions for the trial plants. The damage to the test plants is scored visually after a test period of 3 weeks by comparison with untreated controls (herbicidal activity in percent (%): 100% activity=the plants have died, 0% activity=like control plants). ALOMY: Alopecurus myosuroides

[4] = test system: Lolium multiflorum; experiment: Pre-emergence herbicidal effect; details: 320 g/ha, scored visually after 3 weeks vs untreated controls, 100% = plants have died
Source text: as §2, with “LOLMU: Lolium multiflorum” for “ALOMY: Alopecurus myosuroides”

[5] = test system: Echinochloa crus-galli; experiment: Pre-emergence herbicidal effect; details: 320 g/ha, scored visually after 3 weeks vs untreated controls, 100% = plants have died
Source text: as §2, with “ECHCG: Echinochloa crus-galli” for “ALOMY: Alopecurus myosuroides”

[6] = test system: Setaria viridis; experiment: Pre-emergence herbicidal effect; details: 320 g/ha, scored visually after 3 weeks vs untreated controls, 100% = plants have died
Source text: as §2, with “SETVI: Setaria viridis” for “ALOMY: Alopecurus myosuroides”

[7] = test system: Avena fatua; experiment: Pre-emergence herbicidal effect; details: 320 g/ha, scored visually after 3 weeks vs untreated controls, 100% = plants have died
Source text: as §2, with “AVEFA: Avena fatua” for “ALOMY: Alopecurus myosuroides”

SMILES	Post-emergence effectiveness SETVI (herbicidal action in percent) [1]	Post-emergence effectiveness ECHCG (herbicidal action in percent) [2]	Pre-emergence action ALOMY (herbicidal activity in percent) [3]	Pre-emergence action LOLMU (herbicidal activity in percent) [4]	Pre-emergence action ECHCG (herbicidal activity in percent) [5]	Pre-emergence action SETVI (herbicidal activity in percent) [6]	Pre-emergence action AVEFA (herbicidal activity in percent) [7]
CCc1cc(C)cc(CC)c1C1=C(OC(=O)OC)C2COCCCN2C1=O (stereo not shown) [Ib-2-5]	100%	100%	–	–	–	–	–
CCc1cc(C)cc(C)c1C1=C(OC(=O)OC)C2=CCOCCN2C1=O [Ib-3-5]	90%	90%	100%	80%	–	–	–
COC(=O)OC1=C(c2c(C)cc(C)cc2C)C(=O)N2CCCOCC12 (stereo not shown) [Ib-2-2]	90%	90%	–	–	–	–	–
CCOC(=O)OC1=C(c2c(CC)cc(Cl)cc2OC)C(=O)N2CCOCC=C12 [Ib-3-9]	100%	90%	–	–	–	–	–
CC(=O)OC1=C(c2c(C)cc(C)cc2C)C(=O)N2CCCOCC12 (stereo not shown) [Ib-2-1]	100%	100%	–	–	–	–	–
COc1cc(C)cc(Cl)c1C1=C(O)C2CCOCCN2C1=O (stereo not shown) [Ia-1-8]	–	–	90%	100%	–	–	–
CCOC(=O)OC1=C(c2c(CC)cc(C)cc2CC)C(=O)N2CCOCC=C12 [Ib-3-2]	90%	80%	–	–	–	–	–
CCOC(=O)OC1=C(c2c(C)cc(C)cc2CC)C(=O)N2CCOCC=C12 [Ib-3-6]	90%	90%	–	–	–	–	–
COc1cc(C)cc(Cl)c1C1=C(OC(C)=O)C2=CCOCCN2C1=O [Ib-3-13]	–	–	100%	100%	100%	100%	90%
CCOC(=O)OC1=C(c2c(Cl)cc(C)cc2OC)C(=O)N2CCOCCC12 (stereo not shown) [Ib-1-22]	–	–	90%	100%	100%	100%	100%
CCOC(=O)OC1=C(c2ccc(C)cc2OC)C(=O)N2CCOCCC12 (stereo not shown) [Ib-1-26]	–	–	90%	90%	–	–	–
CCc1cc(C)cc(CC)c1C1=C(OC(=O)C(C)(C)C)C2=CCOCCN2C1=O [Ib-3-3]	100%	90%	–	–	–	–	–
CCOC(=O)OC1=C(c2c(C)cc(Br)cc2C)C(=O)N2CCOCC=C12 [Ib-3-11]	90%	80%	–	–	–	–	–
CCOC(=O)OC1=C(c2c(CC)cc(C)cc2CC)C(=O)N2CCCOCC12 (stereo not shown) [Ib-2-6]	100%	100%	–	–	–	–	–
COc1cc(C)cc(Cl)c1C1=C(OC(=O)C(C)(C)C)C2=CCOCCN2C1=O [Ib-3-16]	–	–	90%	90%	80%	90%	–
CCOC(=O)OC1=C(c2c(C)cc(C)cc2C)C(=O)N2CCCOCC12 (stereo not shown) [Ib-2-3]	90%	90%	–	–	–	–	–
COc1cc(C)cc(Cl)c1C1=C(OC(=O)C(C)(C)C)C2CCOCCN2C1=O (stereo not shown) [Ib-1-23]	–	–	100%	100%	100%	100%	90%
COc1cc(C)cc(Cl)c1C1=C(OC(C)=O)C2CCOCCN2C1=O (stereo not shown) [Ib-1-24]	–	–	90%	100%	100%	100%	90%
Cc1cc(C)c(C2=C(OC(=O)C(C)(C)C)C3COCCCN3C2=O)c(C)c1 (stereo not shown) [Ib-2-4]	100%	90%	–	–	–	–	–
COC(=O)OC1=C(c2c(Cl)cc(C)cc2OC)C(=O)N2CCOCCC12 (stereo not shown) [Ib-1-21]	–	–	100%	100%	100%	100%	90%
CCc1cc(C)cc(CC)c1C1=C(O)C2=CCOCCN2C1=O [Ia-3-3]	100%	100%	80%	100%	–	–	–
CCc1cc(C)cc(C)c1C1=C(OC(=O)C(C)(C)C)C2=CCOCCN2C1=O [Ib-3-7]	100%	90%	–	–	–	–	–
CCc1cc(C)cc(CC)c1C1=C(OC(=O)OCCOC)C2CCOCCN2C1=O (stereo not shown) [Ib-1-5]	–	–	100%	100%	100%	100%	100%
